Read-outs that look alike come from different tables or passages of the source.
Key:
Uninfected HeLa cells [1] = assay: WST-1 cell viability; format: cell-based; settings: 32 μM, 48 h
Description: (§1) Uninfected HeLa cells were cultured with 32 μM (the highest concentration used in antichlamydial analysis) of individual compound or 0.5% DMSO for 48 h. After 10 μL of WST-1 reagent was added, cells were incubated for an additional 1 h, and absorbance at 450 nm was recorded. The viability of compound-treated cells was calculated by the absorbance relative to that of DMSO control setting as 100% [22].

WST-1 cell viability = format: cell-based; settings: human, uninfected HeLa cells, WST-1, relative to DMSO control as 100%
Description: as §1

[2] = system: Chlamydia trachomatis serovar L2 (strain 434/Bu); assay: Infectious progeny inhibition assay, C. trachomatis L2; format: cell-based
Description: Chlamydia trachomatis serovars D (strain UW-3/CX) and L2 (strain 434/Bu) were purchased from ATCC. HeLa cells purchased from ATCC were routinely cultured in DMEM supplemented with 10% heat-inactivated FBS (Sigma-Aldrich) and 10 μg/mL gentamicin at 37°C in a humidified atmosphere of 5% and were used for chlamydial propagation and cell culture experiments. EBs were purified by Renografin density gradient and stored in sucrose-phosphate-glutamate (SPG) buffer at -80°C [20]. A mouse polyclonal anti-MoPn (C. muridarum strain Nigg II) antibody, which was produced in our laboratory and cross-reacting with C. trachomatis D and L2, was used as a primary antibody for both stains detection.
Cell monolayers seeded onto coverslips in a 24-well plate were infected with C. trachomatis at a multiplicity of infection (MOI) of 0.2 inclusion-forming units (IFU) per cell. Unless noted, individual compound was added into culture medium at indicated concentrations simultaneously at the time of inoculation. 0.5% DMSO was used as negative control and 11.25 μM tetracycline (Sigma-Aldrich) as positive control. For C. trachomatis D, an additional centrifugation (900 × g at room temperature for 1 h) was applied to facilitate the infection. At 36 hours postinfection (hpi), infected cells were fixed by precooled methanol and then subjected to sequential staining processed with a primary antibody and a FITC-conjugated secondary antibody. Evans blue was used as cytoplasm counterstain. Images were shot by an Olympus IX51 fluorescence microscope.
Cells monolayers seeded in 48-well plate were infected and treated with chemicals as above. After incubation for 36 hours, infected cells were washed twice, scraped off, and lysed by sonication to release the infectious progeny EBs. Then the lysates were used to reinfect fresh cell monolayers grown in 96-well plate following 1 : 10 serial dilution. The inclusion counts were obtained by immunofluorescence staining as above to calculate the number of infectious progeny EBs in each sample. Percent inhibition was calculated based on EB counts in compound-treated samples relative to DMSO-treated negative control.
Data from the three independent experiments were presented as mean ± standard deviations (SD) and were subjected to pairwise Student's t-tests. p < 0.05 and p < 0.01 are considered statistically significant and statistically highly significant, respectively. The IC50 values, defined as the concentration of compound at which the generation of infectious progeny EBs was reduced by 50% relative to negative control, were calculated by nonlinear regression from percent inhibition data using the GraphPad Prism 5 software, and presented as mean (95% confidence interval).

Uninfected HeLa cells [3] = assay: Host cell cytotoxicity (morphology, nuclear integrity, cell count); format: cell-based; settings: 48 h, Evans blue, DAPI, cell counting
Description: Uninfected HeLa cells were cultured with indicated concentration of individual compound or 0.5% DMSO. Forty-eight hours later, cells were fixed with methanol and stained with Evans blue for morphology or DAPI for nuclear integrity. Otherwise, at 48 h later, cells were detached and enumerated by a hemacytometer.  Figure 2 Lack of cytotoxicity of compounds 1 and 2 on HeLa cells. Uninfected HeLa cells were cultured with medium containing various concentrations of individual compound or 0.5% DMSO for 48 h. (a) The cellular morphology was stained with Evans blue, and cell nucleus was stained with DAPI. (b) The cells were enumerated by a hemacytometer. Data are presented as mean ± SD of three independent assays.

C. trachomatis L2 = assay: Inclusion body immunofluorescence staining; format: cell-based, Chlamydia trachomatis; settings: for Inclusions at the highest concentration: 32 μM, C. trachomatis L2, HeLa cells, 36 hpi; for Formation (number) and growth (size) of C. trachomatis L2 inclusions: HeLa cells, MOI 0.2, 36 hpi, compared with 0.5% DMSO
Description: Cell monolayers seeded onto coverslips in a 24-well plate were infected with C. trachomatis at a multiplicity of infection (MOI) of 0.2 inclusion-forming units (IFU) per cell. Unless noted, individual compound was added into culture medium at indicated concentrations simultaneously at the time of inoculation. 0.5% DMSO was used as negative control and 11.25 μM tetracycline (Sigma-Aldrich) as positive control. For C. trachomatis D, an additional centrifugation (900 × g at room temperature for 1 h) was applied to facilitate the infection. At 36 hours postinfection (hpi), infected cells were fixed by precooled methanol and then subjected to sequential staining processed with a primary antibody and a FITC-conjugated secondary antibody. Evans blue was used as cytoplasm counterstain. Images were shot by an Olympus IX51 fluorescence microscope. […] At the highest concentration of 32 μM, inclusions were few and tiny, analogous to the positive control tetracycline (final concentration, 11.25 μM). In addition, the reduction on the production of progeny EBs was consistent with that of the inclusion number and size (Figure 1(b)). The direct inhibitory effect was also analyzed for C. trachomatis D. Happened as expected, changes in inclusion size and number and the progeny production that response to both chemicals are highly similar to those observed for C. trachomatis L2, with slightly weaker effect (Figures 1(a) and 1(c)).  Figure 1 Inhibition effect of compounds 1 and 2 on C. trachomatis. HeLa cells were infected with C. trachomatis L2 or D at an MOI of 0.2 in the presence of 0.5% DMSO, 11.25 μM tetracycline, or various concentrations of individual compound. Cells were either fixed or lysed for determination of infectious progeny EBs at 36 hpi. (a) Representative immunofluorescence microscopy images (scale bar = 100 μm). Inclusions were stained with a polyclonal anti-MoPn antibody that cross-reacts with C. trachomatis L2 and D (green), and cells were counterstained with Evans blue (red). (b, c) The percent inhibition of production of infectious progeny EBs was calculated based on data in compound-treated samples relative to DMSO-treated control. Data are presented as mean ± SD of three independent assays.

[4] = Chlamydia trachomatis, HeLa, generation of infectious progeny EBs in HeLa cells, MOI 0.2, 36 hpi, 1 to 32 μM, read-out: IC50 (μM) Mean (95% confidence interval) Ct L2
[5] = Chlamydia trachomatis, text statements over both strains (L2 and D), infectious progeny EBs, read-out: IC50 values, statement covering both C. trachomatis L2 and D
[6] = generation of infectious progeny EBs in HeLa cells, MOI 0.2, 36 hpi, 1 to 32 μM, read-out: IC50 (μM) Mean (95% confidence interval) Ct L2

IC50 [2, 4] [µM]	IC50 [2, 5] [µM]	IC50 [2, 6] [µM]	SMILES	Effect on host cell viability / proliferation activity by WST-1, in words (Uninfected HeLa cells [1])	viability at 48 h, 32 µM (WST-1 cell viability) [%]	Cytotoxic activity on host cells (morphology, nuclear integrity, cell proliferation) (Uninfected HeLa cells [3])	Inclusions at the highest concentration (C. trachomatis L2)	Formation (number) and growth (size) of C. trachomatis L2 inclusions (C. trachomatis L2)
< 10	7.25 to 9.73	7.25	c1ccc(C2C3CC(c4ccccc4)N(c4ccccc4)C3ON2c2ccccc2)cc1 (stereo not shown) [Compound 1]	did not show cytotoxicity	101	No substantial cytotoxic activity	few and tiny	inhibited the formation (number) and growth (size)
< 10	7.25 to 9.73	8.69	Clc1ccc(N2C(c3ccccc3)CC3C(c4ccccc4)N(c4ccccc4)OC32)cc1 (stereo not shown) [Compound 2]	did not show cytotoxicity	98.3	No substantial cytotoxic activity	few and tiny	inhibited the formation (number) and growth (size)
